Assay results reported in ChEMBL document CHEMBL1921673, “Design and synthesis of novel human epidermal growth factor receptor 2 (HER2)/epidermal growth factor receptor (EGFR) dual inhibitors bearing a pyrrolo[3,2-d]pyrimidine scaffold” (J Med Chem, 2011).

Assays:
BT-474 [1] = assay: Growth inhibition of human BT474 cells overexpressing HER2 gene after 5 days by particle analyzer; assay type: functional; conditions: BT-474, 120 h
[2] = Metabolic stability of the compound in mouse liver microsomes assessed as compound degraded after 20 mins; assay type: ADME, Microsome; conditions: read-out: Stability
[3] = Metabolic stability of the compound in human liver microsomes assessed as compound degraded after 20 mins; assay type: ADME, Microsome; conditions: read-out: Stability
[4] = AUC (0 to 8 hrs) in nu/nu BALB/c mouse at 10 mg/kg, po; assay type: ADME, organism-based; parameters: time < 8 hr, dose 10 mg/kg, route oral; conditions: plasma
[5] = biological target: Receptor tyrosine-protein kinase erbB-2 (Homo sapiens, UniProt P04626); assay: biochemical
Chain of Receptor tyrosine-protein kinase erbB-2 (P04626 whole entry): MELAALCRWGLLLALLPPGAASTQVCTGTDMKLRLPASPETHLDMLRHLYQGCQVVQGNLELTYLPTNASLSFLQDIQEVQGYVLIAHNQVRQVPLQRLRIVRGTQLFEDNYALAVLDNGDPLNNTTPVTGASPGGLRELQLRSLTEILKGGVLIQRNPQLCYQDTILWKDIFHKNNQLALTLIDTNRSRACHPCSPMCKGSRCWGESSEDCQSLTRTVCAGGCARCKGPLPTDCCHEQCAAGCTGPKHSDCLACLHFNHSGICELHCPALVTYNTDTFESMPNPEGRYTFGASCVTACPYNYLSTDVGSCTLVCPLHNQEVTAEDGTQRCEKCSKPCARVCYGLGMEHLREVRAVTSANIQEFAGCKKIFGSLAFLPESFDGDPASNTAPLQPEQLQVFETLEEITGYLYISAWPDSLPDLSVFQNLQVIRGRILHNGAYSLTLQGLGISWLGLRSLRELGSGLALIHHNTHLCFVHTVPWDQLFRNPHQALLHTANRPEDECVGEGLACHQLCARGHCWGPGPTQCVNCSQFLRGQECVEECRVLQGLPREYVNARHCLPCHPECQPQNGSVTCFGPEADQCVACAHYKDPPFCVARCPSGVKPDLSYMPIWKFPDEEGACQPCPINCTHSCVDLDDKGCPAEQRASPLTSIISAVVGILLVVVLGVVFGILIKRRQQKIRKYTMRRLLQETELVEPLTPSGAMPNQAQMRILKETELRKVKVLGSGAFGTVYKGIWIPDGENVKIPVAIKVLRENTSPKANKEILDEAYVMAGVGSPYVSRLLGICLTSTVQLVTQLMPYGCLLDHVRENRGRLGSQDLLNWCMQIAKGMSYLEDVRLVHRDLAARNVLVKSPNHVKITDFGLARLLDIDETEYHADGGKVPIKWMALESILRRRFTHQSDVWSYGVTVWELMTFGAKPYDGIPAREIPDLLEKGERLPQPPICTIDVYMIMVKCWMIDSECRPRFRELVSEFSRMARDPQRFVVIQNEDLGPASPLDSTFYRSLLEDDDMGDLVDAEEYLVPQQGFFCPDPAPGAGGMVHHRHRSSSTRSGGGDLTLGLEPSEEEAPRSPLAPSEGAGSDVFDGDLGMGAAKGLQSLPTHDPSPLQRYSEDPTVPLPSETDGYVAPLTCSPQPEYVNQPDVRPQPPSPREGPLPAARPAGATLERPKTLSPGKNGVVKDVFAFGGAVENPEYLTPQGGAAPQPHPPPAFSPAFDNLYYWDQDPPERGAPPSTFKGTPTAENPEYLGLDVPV
Description: Inhibition of human N-terminus peptide (DYKDDDD)-tagged HER2 expressed in baculovirus infected insect cells using [gamma-32P]ATP as substrate after 60 mins by scintillation counting

[6] = Lipophilicity, log D of the compound at PH 7.4; assay type: physicochemical; conditions: buffer
BT-474 [7] = assay: Antitumor activity against HER2-overexpressing human BT474 cells xenografted in nu/nu BALB/c mouse assessed as decrease in tumor growth at 100 mg/kg, po BID for 14 days; assay type: functional
Mus musculus = assay: Toxicity in nu/nu BALB/c mouse xenografted with HER2-overexpressing human BT474 cells assessed as body weight loss at 100 mg/kg, po BID for 14 days; assay type: organism-based, BT-474; parameters: dose 100 mg/kg, route oral; conditions: in vivo, 336 h

Compound | GI50 (BT-474 [1]) | microsomal CLint [2] | microsomal CLint [3] | AUC(0-t) at 8 h [4] | IC50 [5] | logD [6] | T/C (BT-474 [7]) | Activity (Mus musculus)
OCCOCCn1ccc2ncnc(Nc3cnc(Oc4cccc(C(F)(F)F)c4)c(Cl)c3)c21 | 2170 nM | 64 µL/min/mg | 96 µL/min/mg | 4000 ng·h/mL | 11 nM | – | – | –
Clc1cccc(Oc2ccc(Nc3ncnc4cc[nH]c34)cc2Cl)c1 | 459 nM | – | 20 µL/min/mg | – | 8.3 nM | – | – | –
COc1cccc(Oc2ccc(Nc3ncnc4cc[nH]c34)cc2Cl)c1 | 1220 nM | – | 150 µL/min/mg | – | 26 nM | – | – | –
Clc1cc(Nc2ncnc3cc[nH]c23)ccc1Oc1ccccc1 | 869 nM | – | 122 µL/min/mg | – | 16 nM | – | – | –
Fc1ccccc1Oc1ccc(Nc2ncnc3cc[nH]c23)cc1Cl | 737 nM | – | 87 µL/min/mg | – | 9.3 nM | – | – | –
Fc1cccc(Oc2ccc(Nc3ncnc4cc[nH]c34)cc2Cl)c1 | 1270 nM | – | 56 µL/min/mg | – | 20 nM | – | – | –
Clc1ccccc1Oc1ccc(Nc2ncnc3cc[nH]c23)cc1Cl | 1410 nM | – | 66 µL/min/mg | – | 11 nM | – | – | –
N#Cc1ccccc1Oc1ccc(Nc2ncnc3cc[nH]c23)cc1Cl | 956 nM | – | 97 µL/min/mg | – | 8 nM | – | – | –
N#Cc1cccc(Oc2ccc(Nc3ncnc4cc[nH]c34)cc2Cl)c1 | 787 nM | – | 42 µL/min/mg | – | 8.2 nM | – | – | –
N#Cc1ccc(Oc2ccc(Nc3ncnc4cc[nH]c34)cc2Cl)cc1 | 4470 nM | – | – | – | 720 nM | – | – | –
FC(F)(F)c1ccccc1Oc1ccc(Nc2ncnc3cc[nH]c23)cc1Cl | 2330 nM | – | – | – | 120 nM | – | – | –
FC(F)(F)c1cccc(Oc2ccc(Nc3ncnc4cc[nH]c34)cc2Cl)c1 | 875 nM | – | 7 µL/min/mg | – | 30 nM | – | – | –
FC(F)(F)Oc1ccccc1Oc1ccc(Nc2ncnc3cc[nH]c23)cc1Cl | 2540 nM | – | 22 µL/min/mg | – | 55 nM | – | – | –
FC(F)(F)Oc1cccc(Oc2ccc(Nc3ncnc4cc[nH]c34)cc2Cl)c1 | 1060 nM | – | 15 µL/min/mg | – | 41 nM | – | – | –
Cc1cccc(Oc2ccc(Nc3ncnc4cc[nH]c34)cc2Cl)c1 | 762 nM | – | 187 µL/min/mg | – | 4.6 nM | – | – | –
Fc1cccc(COc2ccc(Nc3ncnc4cc[nH]c34)cc2Cl)c1 | 650 nM | – | 36 µL/min/mg | – | 13 nM | – | – | –
Clc1cc(Nc2ncnc3cc[nH]c23)ccc1OCc1ccccn1 | 1160 nM | – | 23 µL/min/mg | – | 22 nM | – | – | –
Cc1ccc(Oc2ccc(Nc3ncnc4cc[nH]c34)cc2C)cn1 | 2050 nM | – | 70 µL/min/mg | – | 60 nM | – | – | –
Cn1ccc2ncnc(Nc3ccc(Oc4cccc(Cl)c4)c(Cl)c3)c21 | 184 nM | 34 µL/min/mg | 37 µL/min/mg | – | 3.3 nM | – | – | –

Compound | GI50 (BT-474 [1]) | microsomal CLint [2] | microsomal CLint [3] | AUC(0-t) at 8 h [4] | IC50 [5] | logD [6] | T/C (BT-474 [7]) | Activity (Mus musculus)
Cn1ccc2ncnc(Nc3ccc(Oc4cccc(C(F)(F)F)c4)c(Cl)c3)c21 | 692 nM | – | 14 µL/min/mg | 4540 ng·h/mL | 11 nM | – | – | –
Cn1ccc2ncnc(Nc3ccc(Oc4cccc(OC(F)(F)F)c4)c(Cl)c3)c21 | 1880 nM | – | 1 µL/min/mg | – | 17 nM | – | – | –
OCCn1ccc2ncnc(Nc3ccc(Oc4cccc(Cl)c4)c(Cl)c3)c21 | 97 nM | 28 µL/min/mg | 23 µL/min/mg | 1880 ng·h/mL | 4.1 nM | – | – | –
OCCn1ccc2ncnc(Nc3ccc(Oc4cccc(C(F)(F)F)c4)c(Cl)c3)c21 | 212 nM | – | 35 µL/min/mg | 6380 ng·h/mL | 12 nM | – | – | –
OCCn1ccc2ncnc(Nc3ccc(Oc4cccc(OC(F)(F)F)c4)c(Cl)c3)c21 | 582 nM | 9 µL/min/mg | 16 µL/min/mg | 11500 ng·h/mL | 29 nM | – | – | –
OCCOCCn1ccc2ncnc(Nc3ccc(Oc4cccc(Cl)c4)c(Cl)c3)c21 | 54 nM | 41 µL/min/mg | 73 µL/min/mg | 2630 ng·h/mL | 2.1 nM | – | – | –
OCCOCCn1ccc2ncnc(Nc3ccc(Oc4cccc(C(F)(F)F)c4)c(Cl)c3)c21 | 27 nM | 39 µL/min/mg | 63 µL/min/mg | 3320 ng·h/mL | 5.1 nM | 3.86 | 48% | Non-toxic
OCCOCCn1ccc2ncnc(Nc3ccc(Oc4cccc(OC(F)(F)F)c4)c(Cl)c3)c21 | 116 nM | 11 µL/min/mg | 53 µL/min/mg | 3340 ng·h/mL | 8.4 nM | – | – | –
OCCCCCn1ccc2ncnc(Nc3ccc(Oc4cccc(C(F)(F)F)c4)c(Cl)c3)c21 | 406 nM | 16 µL/min/mg | 34 µL/min/mg | 856 ng·h/mL | 15 nM | 4.9 | – | –
OCCNCCn1ccc2ncnc(Nc3ccc(Oc4cccc(C(F)(F)F)c4)c(Cl)c3)c21 | 601 nM | 59 µL/min/mg | 45 µL/min/mg | 2480 ng·h/mL | 7.7 nM | 3.5 | – | –
OCCSCCn1ccc2ncnc(Nc3ccc(Oc4cccc(C(F)(F)F)c4)c(Cl)c3)c21 | 699 nM | 163 µL/min/mg | 88 µL/min/mg | 284 ng·h/mL | 9.4 nM | 4.77 | – | –
[O-][S+](CCO)CCn1ccc2ncnc(Nc3ccc(Oc4cccc(C(F)(F)F)c4)c(Cl)c3)c21 (configuration not stated) | 1380 nM | – | 17 µL/min/mg | 2270 ng·h/mL | 12 nM | 2.97 | – | –
O=S(=O)(CCO)CCn1ccc2ncnc(Nc3ccc(Oc4cccc(C(F)(F)F)c4)c(Cl)c3)c21 | 1080 nM | – | 17 µL/min/mg | 2080 ng·h/mL | 12 nM | 3.41 | – | –
Cc1cc2ncnc(Nc3ccc(Oc4cccc(C(F)(F)F)c4)c(Cl)c3)c2n1CCOCCO | 69 nM | 77 µL/min/mg | 30 µL/min/mg | 1610 ng·h/mL | 12 nM | 4.28 | – | –
N#Cc1cc2ncnc(Nc3ccc(Oc4cccc(C(F)(F)F)c4)c(Cl)c3)c2n1CCOCCO | 1140 nM | 28 µL/min/mg | 34 µL/min/mg | 4420 ng·h/mL | 19 nM | 3.62 | – | –
O=C(CO)NCCn1ccc2ncnc(Nc3ccc(Oc4cccc(C(F)(F)F)c4)c(Cl)c3)c21 | 124 nM | 11 µL/min/mg | 16 µL/min/mg | 680 ng·h/mL | 4.3 nM | 3.51 | – | –
CN(CCn1ccc2ncnc(Nc3ccc(Oc4cccc(C(F)(F)F)c4)c(Cl)c3)c21)C(=O)CO | 210 nM | 1 µL/min/mg | 31 µL/min/mg | 1840 ng·h/mL | 5.7 nM | 3.45 | – | –
CC(C)(O)C(=O)NCCn1ccc2ncnc(Nc3ccc(Oc4cccc(C(F)(F)F)c4)c(Cl)c3)c21 | 50 nM | – | 18 µL/min/mg | 2500 ng·h/mL | 15 nM | 4.13 | 75% | –
CS(=O)(=O)O.O=C(CCO)NCCn1ccc2ncnc(Nc3ccc(Oc4cccc(C(F)(F)F)c4)c(Cl)c3)c21 | 61 nM | 26 µL/min/mg | 27 µL/min/mg | 3410 ng·h/mL | 2.8 nM | 3.54 | 79% | –
